Literature values as cited in US5739112A, “Inhibitors of factor Xa” (Corvas International, Inc., priority 1995, dated 1998).

Assays:
Conditions in all cases: Turner et al., p. 4932; cited from earlier work
Human factor XIa = tested on: Human factor XIa
human thrombin = human thrombin (Homo sapiens, UniProt P00734)
Human factor Xa = molecular target: T1, Human factor Xa (Homo sapiens, UniProt P00742)
T1 construct: Human factor X contains a light-chain subunit containing 139 amino acid residues; purchased Enzyme Research Laboratories
T1 sequence (P00742 235-488 limits assumed): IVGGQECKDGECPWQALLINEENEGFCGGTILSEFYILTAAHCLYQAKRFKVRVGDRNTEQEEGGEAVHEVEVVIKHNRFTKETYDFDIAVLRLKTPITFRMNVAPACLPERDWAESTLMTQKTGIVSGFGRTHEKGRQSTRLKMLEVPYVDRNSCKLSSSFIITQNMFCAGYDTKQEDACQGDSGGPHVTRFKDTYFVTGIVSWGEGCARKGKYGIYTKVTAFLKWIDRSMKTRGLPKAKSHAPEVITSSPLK
T1 sequence (P00742 41-179 partner limits assumed): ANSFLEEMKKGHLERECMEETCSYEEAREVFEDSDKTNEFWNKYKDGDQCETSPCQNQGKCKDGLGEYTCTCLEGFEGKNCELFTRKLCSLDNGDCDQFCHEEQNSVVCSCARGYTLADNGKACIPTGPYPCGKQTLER

For `CC(=Cc1ccccc1)C(=O)Oc1ccc(C(=N)N)cc1` [p-Amidinophenyl α-methylcinnamate], the “second-order rate constant of inactivation, human factor XIa” value (Human factor XIa) is listed as 2670 M⁻¹ s⁻¹, the “second-order rate constant of inactivation, human thrombin” value (human thrombin) is listed as 2670 M⁻¹ s⁻¹ and the “second-order rate constant of inactivation, human factor Xa” value (Human factor Xa) is listed as 1650 M⁻¹ s⁻¹.
